Structures are written as SMILES.

For one assay, the target named is T1, Progesterone receptor (Homo sapiens, UniProt P06401).
T1 sequence (P06401 whole entry): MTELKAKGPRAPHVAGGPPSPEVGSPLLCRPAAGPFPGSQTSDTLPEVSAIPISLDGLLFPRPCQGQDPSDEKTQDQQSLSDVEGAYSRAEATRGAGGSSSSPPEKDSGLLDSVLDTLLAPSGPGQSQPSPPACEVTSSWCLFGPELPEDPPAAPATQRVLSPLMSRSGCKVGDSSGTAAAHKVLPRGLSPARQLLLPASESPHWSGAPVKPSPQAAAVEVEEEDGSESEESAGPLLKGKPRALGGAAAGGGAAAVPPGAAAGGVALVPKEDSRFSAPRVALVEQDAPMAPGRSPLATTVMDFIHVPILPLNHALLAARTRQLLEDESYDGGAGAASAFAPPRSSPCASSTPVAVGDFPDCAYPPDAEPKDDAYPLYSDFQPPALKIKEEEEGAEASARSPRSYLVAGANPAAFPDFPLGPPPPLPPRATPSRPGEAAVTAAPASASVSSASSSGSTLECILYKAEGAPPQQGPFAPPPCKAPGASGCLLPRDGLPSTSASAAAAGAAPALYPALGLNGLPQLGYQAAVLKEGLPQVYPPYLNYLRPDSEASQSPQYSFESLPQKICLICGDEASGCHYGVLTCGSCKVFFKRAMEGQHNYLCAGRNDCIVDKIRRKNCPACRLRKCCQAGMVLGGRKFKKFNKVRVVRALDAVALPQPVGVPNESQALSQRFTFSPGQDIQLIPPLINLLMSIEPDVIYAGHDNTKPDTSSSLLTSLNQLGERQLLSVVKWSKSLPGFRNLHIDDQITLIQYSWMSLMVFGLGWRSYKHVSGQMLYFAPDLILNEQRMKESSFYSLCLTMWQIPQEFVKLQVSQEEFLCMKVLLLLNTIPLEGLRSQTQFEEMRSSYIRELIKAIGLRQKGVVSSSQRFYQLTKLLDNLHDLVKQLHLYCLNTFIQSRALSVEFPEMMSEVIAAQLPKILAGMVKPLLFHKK
Type of assay: functional.

Assay [1] concerns the target Voltage-gated inwardly rectifying potassium channel KCNH2 (Homo sapiens, UniProt Q12809). The class given is functional.
The target of assay [2] is T2, Cholecystokinin receptor type A (Homo sapiens, UniProt P32238).
T2 sequence (P32238 whole entry): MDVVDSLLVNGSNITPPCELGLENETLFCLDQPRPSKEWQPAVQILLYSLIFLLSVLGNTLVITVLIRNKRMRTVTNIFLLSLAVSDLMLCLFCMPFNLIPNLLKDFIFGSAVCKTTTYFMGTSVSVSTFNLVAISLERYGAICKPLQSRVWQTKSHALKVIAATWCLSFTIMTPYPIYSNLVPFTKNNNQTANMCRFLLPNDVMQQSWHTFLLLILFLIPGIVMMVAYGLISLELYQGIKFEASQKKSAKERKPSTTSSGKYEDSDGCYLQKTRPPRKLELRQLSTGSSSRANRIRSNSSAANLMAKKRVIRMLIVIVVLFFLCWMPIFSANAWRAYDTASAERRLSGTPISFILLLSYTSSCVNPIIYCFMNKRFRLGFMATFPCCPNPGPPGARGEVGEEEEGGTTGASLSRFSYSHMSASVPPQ

Another assay has as its target D(3) dopamine receptor (Homo sapiens, UniProt P35462).
Assay [3] concerns the target Gamma-aminobutyric acid receptor subunit alpha-1 (Rattus norvegicus, UniProt P62813).
The target in assay [4] is T3, Alpha-1A adrenergic receptor (Homo sapiens, UniProt P35348).
T3 sequence (P35348 whole entry): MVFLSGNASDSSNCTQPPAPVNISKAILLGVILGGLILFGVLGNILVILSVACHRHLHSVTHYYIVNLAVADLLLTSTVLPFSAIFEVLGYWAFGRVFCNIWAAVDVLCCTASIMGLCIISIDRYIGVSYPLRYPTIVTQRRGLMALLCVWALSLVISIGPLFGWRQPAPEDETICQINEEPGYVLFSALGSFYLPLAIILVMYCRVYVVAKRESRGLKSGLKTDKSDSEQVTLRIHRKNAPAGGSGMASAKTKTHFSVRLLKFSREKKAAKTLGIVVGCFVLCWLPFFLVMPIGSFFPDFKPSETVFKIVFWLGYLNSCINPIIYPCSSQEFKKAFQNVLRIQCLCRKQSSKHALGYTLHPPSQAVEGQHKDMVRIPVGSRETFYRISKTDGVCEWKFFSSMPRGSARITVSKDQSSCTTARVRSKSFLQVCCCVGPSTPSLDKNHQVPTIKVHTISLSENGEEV
Type of assay: functional, cell-based.

For the next assay, the target named is D(1A) dopamine receptor (Homo sapiens, UniProt P21728). The class given is functional, cell-based.
Assay [5] has as its target Sodium-dependent dopamine transporter (Homo sapiens, UniProt Q01959).
In assay [6] the target is T4, 5-hydroxytryptamine receptor 3A (Homo sapiens, UniProt P46098).
T4 sequence (P46098 whole entry): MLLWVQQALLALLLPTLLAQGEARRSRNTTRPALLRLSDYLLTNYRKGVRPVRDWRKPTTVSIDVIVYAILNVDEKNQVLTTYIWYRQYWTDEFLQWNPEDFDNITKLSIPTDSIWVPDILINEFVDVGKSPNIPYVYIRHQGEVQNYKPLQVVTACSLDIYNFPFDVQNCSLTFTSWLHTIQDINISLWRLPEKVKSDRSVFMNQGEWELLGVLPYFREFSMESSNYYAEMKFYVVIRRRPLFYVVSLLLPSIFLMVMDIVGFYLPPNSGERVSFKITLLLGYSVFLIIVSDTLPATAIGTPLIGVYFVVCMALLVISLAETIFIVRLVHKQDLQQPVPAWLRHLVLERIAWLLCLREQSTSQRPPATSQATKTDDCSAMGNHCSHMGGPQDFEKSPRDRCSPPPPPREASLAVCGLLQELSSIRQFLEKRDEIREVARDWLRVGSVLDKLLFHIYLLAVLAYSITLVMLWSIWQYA
The class given is functional.
Also: assay procedure not described here.

D(3) dopamine receptor, sequence (P35462 whole entry): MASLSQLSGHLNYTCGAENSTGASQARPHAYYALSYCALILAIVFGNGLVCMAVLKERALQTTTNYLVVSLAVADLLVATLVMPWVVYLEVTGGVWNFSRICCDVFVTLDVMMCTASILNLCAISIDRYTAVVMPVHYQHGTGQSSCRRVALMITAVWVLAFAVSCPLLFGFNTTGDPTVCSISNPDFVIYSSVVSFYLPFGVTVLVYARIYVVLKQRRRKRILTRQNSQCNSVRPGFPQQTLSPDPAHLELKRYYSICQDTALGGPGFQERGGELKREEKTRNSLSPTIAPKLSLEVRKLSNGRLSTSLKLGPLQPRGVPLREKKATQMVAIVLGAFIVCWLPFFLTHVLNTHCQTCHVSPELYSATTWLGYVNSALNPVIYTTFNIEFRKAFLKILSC
D(1A) dopamine receptor, sequence (P21728 whole entry): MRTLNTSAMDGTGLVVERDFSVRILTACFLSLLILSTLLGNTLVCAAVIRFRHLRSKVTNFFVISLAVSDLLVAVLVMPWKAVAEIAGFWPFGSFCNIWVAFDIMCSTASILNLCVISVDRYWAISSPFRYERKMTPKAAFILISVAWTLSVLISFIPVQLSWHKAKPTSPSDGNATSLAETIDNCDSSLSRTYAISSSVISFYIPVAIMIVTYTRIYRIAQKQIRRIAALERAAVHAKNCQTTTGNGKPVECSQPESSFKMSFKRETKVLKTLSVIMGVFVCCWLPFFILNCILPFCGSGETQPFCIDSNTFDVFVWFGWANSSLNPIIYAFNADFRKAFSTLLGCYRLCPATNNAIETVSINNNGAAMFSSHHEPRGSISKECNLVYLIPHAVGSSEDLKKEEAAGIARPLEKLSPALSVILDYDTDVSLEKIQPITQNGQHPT
Voltage-gated inwardly rectifying potassium channel KCNH2, sequence (Q12809 whole entry): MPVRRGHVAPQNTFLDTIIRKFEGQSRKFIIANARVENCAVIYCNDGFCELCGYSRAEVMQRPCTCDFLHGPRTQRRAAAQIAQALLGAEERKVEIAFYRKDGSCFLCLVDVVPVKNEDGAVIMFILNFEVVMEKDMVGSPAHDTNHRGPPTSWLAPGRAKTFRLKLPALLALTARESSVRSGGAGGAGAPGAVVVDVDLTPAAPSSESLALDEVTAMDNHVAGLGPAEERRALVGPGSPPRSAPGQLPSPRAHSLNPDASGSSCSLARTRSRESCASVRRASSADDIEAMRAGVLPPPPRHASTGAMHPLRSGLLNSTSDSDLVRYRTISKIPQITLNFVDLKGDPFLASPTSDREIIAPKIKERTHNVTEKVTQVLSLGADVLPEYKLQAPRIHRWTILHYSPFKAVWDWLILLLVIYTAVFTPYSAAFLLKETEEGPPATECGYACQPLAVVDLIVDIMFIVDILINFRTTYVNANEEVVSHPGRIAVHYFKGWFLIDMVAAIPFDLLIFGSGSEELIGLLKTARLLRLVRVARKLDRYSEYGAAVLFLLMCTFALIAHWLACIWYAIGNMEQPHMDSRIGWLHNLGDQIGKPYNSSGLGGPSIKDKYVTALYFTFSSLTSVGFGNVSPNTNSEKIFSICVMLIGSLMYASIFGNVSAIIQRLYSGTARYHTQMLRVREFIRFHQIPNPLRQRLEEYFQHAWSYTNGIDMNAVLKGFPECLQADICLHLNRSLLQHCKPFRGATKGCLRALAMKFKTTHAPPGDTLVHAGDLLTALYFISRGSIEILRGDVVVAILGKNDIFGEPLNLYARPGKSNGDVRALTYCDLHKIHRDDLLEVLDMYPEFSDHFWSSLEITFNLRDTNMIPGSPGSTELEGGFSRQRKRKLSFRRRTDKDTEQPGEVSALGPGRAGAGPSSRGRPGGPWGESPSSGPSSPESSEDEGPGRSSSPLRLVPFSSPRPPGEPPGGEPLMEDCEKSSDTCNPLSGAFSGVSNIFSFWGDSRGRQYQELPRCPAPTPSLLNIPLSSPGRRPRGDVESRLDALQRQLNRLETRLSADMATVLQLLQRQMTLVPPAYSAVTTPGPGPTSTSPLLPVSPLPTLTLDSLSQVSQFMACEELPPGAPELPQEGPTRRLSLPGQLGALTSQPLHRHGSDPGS
Sodium-dependent dopamine transporter, sequence (Q01959 whole entry): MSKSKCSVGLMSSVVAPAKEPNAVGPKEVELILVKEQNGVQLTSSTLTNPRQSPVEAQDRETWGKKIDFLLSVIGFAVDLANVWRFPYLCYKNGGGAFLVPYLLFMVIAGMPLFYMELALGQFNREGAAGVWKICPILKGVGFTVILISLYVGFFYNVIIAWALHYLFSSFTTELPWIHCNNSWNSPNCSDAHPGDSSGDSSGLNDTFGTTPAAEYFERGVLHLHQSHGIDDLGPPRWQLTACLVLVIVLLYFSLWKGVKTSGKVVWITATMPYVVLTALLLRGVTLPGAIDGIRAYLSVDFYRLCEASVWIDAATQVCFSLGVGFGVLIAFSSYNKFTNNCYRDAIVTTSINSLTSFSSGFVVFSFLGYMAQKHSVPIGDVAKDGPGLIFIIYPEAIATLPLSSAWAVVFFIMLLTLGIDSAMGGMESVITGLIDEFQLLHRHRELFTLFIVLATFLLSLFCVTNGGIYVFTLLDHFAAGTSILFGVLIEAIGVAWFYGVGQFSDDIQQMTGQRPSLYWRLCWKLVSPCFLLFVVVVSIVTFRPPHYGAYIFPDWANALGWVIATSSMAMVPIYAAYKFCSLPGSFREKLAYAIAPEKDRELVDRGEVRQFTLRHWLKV
Gamma-aminobutyric acid receptor subunit alpha-1, sequence (P62813 whole entry): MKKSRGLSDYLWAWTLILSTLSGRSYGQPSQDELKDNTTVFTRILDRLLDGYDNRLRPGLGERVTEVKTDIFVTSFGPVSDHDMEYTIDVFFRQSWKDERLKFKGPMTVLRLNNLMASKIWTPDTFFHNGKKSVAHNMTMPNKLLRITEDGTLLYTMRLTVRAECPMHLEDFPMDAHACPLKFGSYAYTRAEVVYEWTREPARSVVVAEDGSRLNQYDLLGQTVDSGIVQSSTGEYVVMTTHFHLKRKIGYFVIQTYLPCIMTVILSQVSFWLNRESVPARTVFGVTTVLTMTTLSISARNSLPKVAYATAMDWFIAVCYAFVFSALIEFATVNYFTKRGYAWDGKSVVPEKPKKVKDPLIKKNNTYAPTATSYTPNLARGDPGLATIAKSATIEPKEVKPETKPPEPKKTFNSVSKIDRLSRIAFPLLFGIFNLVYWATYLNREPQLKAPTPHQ

A word on the AC50: it is the concentration at which the activity in the assay is half-maximal. Low readings indicate activity at low concentration, high ones activity only at high concentration. As to `CCOC(=O)O[C@]1(C(=O)OCCl)CC[C@H]2[C@@H]3CCC4=CC(=O)C=C[C@]4(C)[C@H]3[C@@H](O)C[C@@]21C` [LOTEPREDNOL ETABONATE], the half-maximal activity concentration (AC50) is 0.024 µM on Progesterone receptor; over 30 µM in assay [1]; over 30 µM in assay [2]; over 30 µM at D(3) dopamine receptor; over 30 µM in assay [3]; over 30 µM in assay [4]. The AC50 (on D(1A) dopamine receptor; in assay [5]; in [6]) was over 30 µM throughout.
Turning to `COc1ccc(-c2noc(CC(=O)O)c2-c2ccc(OC)cc2)cc1` [MOFEZOLAC], the concentration at half-maximal activity (AC50) (on Progesterone receptor; in [1]; in assay [2]; at D(3) dopamine receptor; in assay [3]; in [4]) was over 30 µM in each case. For the same compound, the AC50 (on D(1A) dopamine receptor; in [5]; in [6]) was over 30 µM each time.
For the compound `COc1ccc2nc3cc(Cl)ccc3c(Nc3cc(CN4CCCC4)c(O)c(CN4CCCC4)c3)c2n1` [PYRONARIDINE], the AC50 at Progesterone receptor was 14 µM; in assay [1], 0.28 µM; in assay [2], over 30 µM; at D(3) dopamine receptor, 21 µM; in assay [3] it was over 30 µM; in [4] it was over 30 µM. Moreover, the AC50 was over 30 µM at D(1A) dopamine receptor, 11 µM in assay [5] and over 30 µM in assay [6].
For the compound `CC1=C(C)C(=O)C(C(CCCCCC(=O)O)c2ccccc2)=C(C)C1=O` (centres undefined) [SERATRODAST], the AC50 (on Progesterone receptor; in assay [1]; in [2]; on D(3) dopamine receptor; in [3]; in [4]) was over 30 µM throughout. Moreover, the concentration at half-maximal activity (AC50) (at D(1A) dopamine receptor; in assay [5]; in assay [6]) was over 30 µM each time.
For `CCN(CC)CCNC(=O)c1cc(S(C)(=O)=O)ccc1OC` [TIAPRIDE], the AC50 was over 30 µM at Progesterone receptor; 8.5 µM in assay [1]; over 30 µM in assay [2]; 0.36 µM at D(3) dopamine receptor; over 30 µM in [3]; over 30 µM in assay [4]. Further, the AC50 (at D(1A) dopamine receptor; in assay [5]; in assay [6]) was over 30 µM in each case.
In the case of `CCC(COC(=O)c1cc(OC)c(OC)c(OC)c1)(c1ccccc1)N(C)C` (centres undefined) [TRIMEBUTINE], the concentration at half-maximal activity (AC50) at Progesterone receptor was over 30 µM; in assay [1], 1.7 µM; in [2] it was over 30 µM; at D(3) dopamine receptor it was over 30 µM; in assay [3] it was over 30 µM; in assay [4], over 30 µM. Moreover, the figures for the AC50 (at D(1A) dopamine receptor; in assay [5]; in assay [6]) were over 30 µM, 27 µM and over 30 µM, respectively.
